± gives the expanded uncertainty stated by the source.
Assay: xn = mol fraction of the nth substance listed
Settings: Liquid, Vibrating tube method

c1ccsc1 [thiophene] + O=C=O gave a mass density (293.15 K, 101 kPa, x2 = 0) of 1063.59 ± 0.44 kg/m3, a mass density (303.15 K, 101 kPa, x2 = 0) of 1051.55 ± 0.44 kg/m3 and a mass density (313.06 K, 7053 kPa, x2 = 0.5661) of 983.33 ± 0.43 kg/m3. It also gave a mass density (313.06 K, 8092 kPa, x2 = 0.5661) of 985.63 ± 0.43 kg/m3, a mass density (313.06 K, 8911 kPa, x2 = 0.5661) of 987.46 ± 0.43 kg/m3 and a mass density (313.06 K, 10009 kPa, x2 = 0.5661) of 989.71 ± 0.43 kg/m3. For the same molecule, the mass density (313.06 K, 11009 kPa, x2 = 0.5661) was 991.78 ± 0.43 kg/m3, the mass density (313.06 K, 11980 kPa, x2 = 0.5661) was 993.76 ± 0.43 kg/m3 and the mass density (313.06 K, 13003 kPa, x2 = 0.5661) was 995.81 ± 0.43 kg/m3. It also gave a mass density (313.06 K, 13999 kPa, x2 = 0.5661) of 997.77 ± 0.43 kg/m3, a mass density (313.06 K, 15006 kPa, x2 = 0.5661) of 999.68 ± 0.43 kg/m3 and a mass density (313.06 K, 15996 kPa, x2 = 0.5661) of 1001.53 ± 0.43 kg/m3. The mass density (313.06 K, 17015 kPa, x2 = 0.5661) was 1003.44 ± 0.43 kg/m3, the mass density (313.06 K, 17998 kPa, x2 = 0.5661) was 1005.25 ± 0.43 kg/m3 and the mass density (313.06 K, 19007 kPa, x2 = 0.5661) was 1007.09 ± 0.43 kg/m3. It also gave a mass density (313.07 K, 4997 kPa, x2 = 0.199) of 1030.05 ± 0.43 kg/m3, a mass density (313.07 K, 6011 kPa, x2 = 0.199) of 1031.17 ± 0.43 kg/m3 and a mass density (313.07 K, 7011 kPa, x2 = 0.199) of 1032.32 ± 0.43 kg/m3. The mass density (313.07 K, 8006 kPa, x2 = 0.199) was 1033.43 ± 0.43 kg/m3, the mass density (313.07 K, 9032 kPa, x2 = 0.199) was 1034.56 ± 0.43 kg/m3 and the mass density (313.07 K, 10022 kPa, x2 = 0.199) was 1035.65 ± 0.43 kg/m3. It also gave a mass density (313.07 K, 11026 kPa, x2 = 0.199) of 1036.74 ± 0.43 kg/m3, a mass density (313.07 K, 12001 kPa, x2 = 0.199) of 1037.83 ± 0.43 kg/m3 and a mass density (313.07 K, 13018 kPa, x2 = 0.199) of 1038.9 ± 0.43 kg/m3. The mass density (313.07 K, 13993 kPa, x2 = 0.199) was 1039.92 ± 0.43 kg/m3, the mass density (313.07 K, 14989 kPa, x2 = 0.199) was 1040.95 ± 0.43 kg/m3 and the mass density (313.07 K, 16012 kPa, x2 = 0.199) was 1042.03 ± 0.43 kg/m3. For the same molecule, the mass density (313.07 K, 17005 kPa, x2 = 0.199) was 1043.03 ± 0.43 kg/m3, the mass density (313.07 K, 18003 kPa, x2 = 0.199) was 1044.05 ± 0.43 kg/m3 and the mass density (313.07 K, 19065 kPa, x2 = 0.199) was 1045.15 ± 0.43 kg/m3. It also gave a mass density (313.09 K, 1029 kPa, x2 = 0) of 1040.96 ± 0.44 kg/m3, a mass density (313.09 K, 1969 kPa, x2 = 0) of 1041.84 ± 0.44 kg/m3 and a mass density (313.09 K, 2970 kPa, x2 = 0) of 1042.78 ± 0.44 kg/m3. For the same molecule, the mass density (313.09 K, 3987 kPa, x2 = 0) was 1043.71 ± 0.44 kg/m3, the mass density (313.09 K, 5055 kPa, x2 = 0) was 1044.72 ± 0.44 kg/m3 and the mass density (313.09 K, 5952 kPa, x2 = 0) was 1045.51 ± 0.44 kg/m3. It also gave a mass density (313.09 K, 6937 kPa, x2 = 0) of 1046.43 ± 0.44 kg/m3, a mass density (313.09 K, 8032 kPa, x2 = 0) of 1047.39 ± 0.44 kg/m3 and a mass density (313.09 K, 9218 kPa, x2 = 0) of 1048.44 ± 0.44 kg/m3. The mass density (313.09 K, 10045 kPa, x2 = 0) was 1049.18 ± 0.44 kg/m3, the mass density (313.09 K, 11012 kPa, x2 = 0) was 1050.03 ± 0.44 kg/m3 and the mass density (313.09 K, 12014 kPa, x2 = 0) was 1050.9 ± 0.44 kg/m3. For the same molecule, the mass density (313.09 K, 12995 kPa, x2 = 0) was 1051.74 ± 0.44 kg/m3, the mass density (313.09 K, 13961 kPa, x2 = 0) was 1052.59 ± 0.44 kg/m3 and the mass density (313.09 K, 14970 kPa, x2 = 0) was 1053.43 ± 0.44 kg/m3. It also gave a mass density (313.09 K, 15953 kPa, x2 = 0) of 1054.26 ± 0.44 kg/m3, a mass density (313.09 K, 17004 kPa, x2 = 0) of 1055.16 ± 0.44 kg/m3 and a mass density (313.09 K, 18003 kPa, x2 = 0) of 1055.95 ± 0.44 kg/m3. For the same molecule, the mass density (313.09 K, 18904 kPa, x2 = 0) was 1056.76 ± 0.44 kg/m3, the mass density (313.13 K, 9091 kPa, x2 = 0.9217) was 798.81 ± 0.74 kg/m3 and the mass density (313.13 K, 10071 kPa, x2 = 0.9217) was 813.05 ± 0.72 kg/m3. The mass density (313.13 K, 11026 kPa, x2 = 0.9217) was 824.67 ± 0.67 kg/m3, the mass density (313.13 K, 12059 kPa, x2 = 0.9217) was 836.13 ± 0.63 kg/m3 and the mass density (313.13 K, 13037 kPa, x2 = 0.9217) was 845.52 ± 0.61 kg/m3. For the same molecule, the mass density (313.13 K, 14012 kPa, x2 = 0.9217) was 854.21 ± 0.59 kg/m3, the mass density (313.13 K, 15001 kPa, x2 = 0.9217) was 862.38 ± 0.57 kg/m3 and the mass density (313.13 K, 16014 kPa, x2 = 0.9217) was 870.06 ± 0.56 kg/m3. For the same molecule, the mass density (313.13 K, 17035 kPa, x2 = 0.9217) was 877.41 ± 0.55 kg/m3, the mass density (313.13 K, 18056 kPa, x2 = 0.9217) was 884.26 ± 0.54 kg/m3 and the mass density (313.13 K, 19024 kPa, x2 = 0.9217) was 890.25 ± 0.53 kg/m3. The mass density (313.13 K, 19849 kPa, x2 = 0.9217) was 895.22 ± 0.52 kg/m3, the mass density (313.13 K, 20858 kPa, x2 = 0.9217) was 901.01 ± 0.51 kg/m3 and the mass density (313.13 K, 21968 kPa, x2 = 0.9217) was 907.04 ± 0.51 kg/m3. For the same molecule, the mass density (313.13 K, 23020 kPa, x2 = 0.9217) was 912.42 ± 0.5 kg/m3, the mass density (313.13 K, 24013 kPa, x2 = 0.9217) was 917.38 ± 0.5 kg/m3 and the mass density (313.13 K, 25004 kPa, x2 = 0.9217) was 921.98 ± 0.49 kg/m3. The mass density (313.14 K, 5783 kPa, x2 = 0.3818) was 1008.02 ± 0.43 kg/m3, the mass density (313.14 K, 6953 kPa, x2 = 0.3818) was 1010.44 ± 0.42 kg/m3 and the mass density (313.14 K, 7991 kPa, x2 = 0.6996) was 974.06 ± 0.43 kg/m3. The mass density (313.14 K, 8014 kPa, x2 = 0.3818) was 1012.13 ± 0.42 kg/m3, the mass density (313.14 K, 9021 kPa, x2 = 0.3818) was 1013.7 ± 0.42 kg/m3 and the mass density (313.14 K, 9112 kPa, x2 = 0.6996) was 977.19 ± 0.42 kg/m3. The mass density (313.14 K, 9872 kPa, x2 = 0.6996) was 979.01 ± 0.42 kg/m3, the mass density (313.14 K, 9948 kPa, x2 = 0.3818) was 1015.07 ± 0.42 kg/m3 and the mass density (313.14 K, 10945 kPa, x2 = 0.3818) was 1016.6 ± 0.42 kg/m3. The mass density (313.14 K, 10946 kPa, x2 = 0.6996) was 981.56 ± 0.42 kg/m3, the mass density (313.14 K, 11951 kPa, x2 = 0.6996) was 983.92 ± 0.42 kg/m3 and the mass density (313.14 K, 12015 kPa, x2 = 0.3818) was 1018.22 ± 0.42 kg/m3. For the same molecule, the mass density (313.14 K, 13025 kPa, x2 = 0.3818) was 1019.65 ± 0.42 kg/m3, the mass density (313.14 K, 13033 kPa, x2 = 0.6996) was 986.45 ± 0.42 kg/m3 and the mass density (313.14 K, 13973 kPa, x2 = 0.3818) was 1021.04 ± 0.42 kg/m3. The mass density (313.14 K, 13991 kPa, x2 = 0.6996) was 988.63 ± 0.42 kg/m3, the mass density (313.14 K, 14931 kPa, x2 = 0.6996) was 990.71 ± 0.41 kg/m3 and the mass density (313.14 K, 15006 kPa, x2 = 0.3818) was 1022.52 ± 0.42 kg/m3. The mass density (313.14 K, 15988 kPa, x2 = 0.6996) was 993.02 ± 0.41 kg/m3, the mass density (313.14 K, 15992 kPa, x2 = 0.3818) was 1023.89 ± 0.42 kg/m3 and the mass density (313.14 K, 16994 kPa, x2 = 0.6996) was 995.2 ± 0.41 kg/m3. It also gave a mass density (313.14 K, 17012 kPa, x2 = 0.3818) of 1025.32 ± 0.42 kg/m3, a mass density (313.14 K, 18022 kPa, x2 = 0.6996) of 997.41 ± 0.54 kg/m3 and a mass density (313.14 K, 18039 kPa, x2 = 0.3818) of 1026.72 ± 0.43 kg/m3. The mass density (313.14 K, 18908 kPa, x2 = 0.3818) was 1027.86 ± 0.42 kg/m3, the mass density (313.15 K, 101 kPa, x2 = 0) was 1039.32 ± 0.44 kg/m3 and the mass density (322.95 K, 5076 kPa, x2 = 0.199) was 1016.5 ± 0.43 kg/m3. For the same molecule, the mass density (322.95 K, 6015 kPa, x2 = 0.199) was 1017.63 ± 0.43 kg/m3, the mass density (322.95 K, 7042 kPa, x2 = 0.199) was 1018.88 ± 0.43 kg/m3 and the mass density (322.95 K, 8054 kPa, x2 = 0.199) was 1020.1 ± 0.43 kg/m3. The mass density (322.95 K, 9012 kPa, x2 = 0.199) was 1021.25 ± 0.43 kg/m3, the mass density (322.95 K, 9975 kPa, x2 = 0.199) was 1022.38 ± 0.43 kg/m3 and the mass density (322.95 K, 11019 kPa, x2 = 0.199) was 1023.61 ± 0.43 kg/m3. The mass density (322.95 K, 12001 kPa, x2 = 0.199) was 1024.72 ± 0.43 kg/m3, the mass density (322.95 K, 12978 kPa, x2 = 0.199) was 1025.86 ± 0.43 kg/m3 and the mass density (322.95 K, 14026 kPa, x2 = 0.199) was 1027.05 ± 0.43 kg/m3. It also gave a mass density (322.95 K, 15010 kPa, x2 = 0.199) of 1028.15 ± 0.43 kg/m3, a mass density (322.95 K, 16019 kPa, x2 = 0.199) of 1029.28 ± 0.43 kg/m3 and a mass density (322.95 K, 17005 kPa, x2 = 0.199) of 1030.36 ± 0.43 kg/m3. For the same molecule, the mass density (322.95 K, 18005 kPa, x2 = 0.199) was 1031.46 ± 0.43 kg/m3.

Reference: the NIST ThermoML archive (doi:10.1016/j.fluid.2005.07.017)
